Source: patent US9676715B2, “Bis-indolic derivatives, a process for preparing the same and their uses as a drug” (UNIVERSITE JOSEPH FOURIER, priority 2011, dated 2017)
In brackets after ≈: the same amount, converted by molar mass.

Legend:
[1] = tested on: Staphylococcus saprophyticus (CHUG-Ssap2); experiment: MIC, Staphylococcus panel (9.2); format: cell-based; conditions: S. saprophyticus CHUG-Ssap2, 4% DMSO, 18 h
Description: (§1) The microdilution method recommended by the Clinical and Laboratory Standard Institute [M07-A9, Vol. 32, N° 2] was used. The activity of bis-indolic compounds 3f and 4 was tested against 35 Staphylococcus bacterial strains corresponding to 12 different species,
(§2) Bacterial inocula were prepared in Mueller Hinton broth (MH2, BioMérieux, Marcy L'Etoile, France). They were dispensed in 96 well microtiter plates (5×10^5 CFU/ml of final inoculum, 192 μL per well). Indolic compounds diluted in pure DMSO (8 μL per well, concentrated 25 times) were added to the wells as to obtain two-fold serial concentrations (0.5-32 mg/L of final concentrations). The final concentration of DMSO was 4% in each well.
(§3) To avoid cross-contaminations in microtiter plates, one row was left blank between each strain tested. Microplates were incubated for 18 h at 37° C. in ambient air. Then MICs were read visually and, in case of visual reading difficulties, confirmed using a spectrophotometer at a wavelength of 630 nm (BioTek® EL808 Absorbance Microplate Reader). MICs corresponded to the minimum bis-indolic compound concentration that allowed complete visual growth inhibition of bacteria. Drug-free cultures served as growth controls.
(§4) Coagulase-negative Staphylococcus strains included three reference strains purchased from CRBIP: a methicillin-susceptible S. epidermidis strain (ATCC 12228), a methicillin-resistant S. epidermidis strain (ATCC 49461), and a methicillin-susceptible S. sciuri strain (ATCC 29061). We also used clinical strains belonging to the following coagulase-negative Staphylococcus species: S. auricularis (two strains), S. warneri (five strains), S. capitis (five strains), S. haemolyticus (four strains), S. hominis (seven strains), S. cohnii (two strains), and S. saprophyticus, S. caprae and S. simulans (one strain each). Identification of the clinical strains was obtained using VITEK® 2 System (Biomérieux). The specified strain numbers correspond to an internal number of the bacterial strain collection of our laboratory.

[2] = tested on: Staphylococcus capitis (CHUG-Scap5); experiment: MIC, Staphylococcus panel (9.2); format: cell-based; conditions: S. capitis CHUG-Scap5, 4% DMSO, 18 h
Description: as §1, §2, §3, §4

[3] = tested on: Staphylococcus simulans (CHUG-Ssim1); experiment: MIC, Staphylococcus panel (9.2); format: cell-based; conditions: S. simulans CHUG-Ssim1, 4% DMSO, 18 h
Description: as §1, §2, §3, §4

[4] = tested on: Staphylococcus hominis (CHUG-Shom6); experiment: MIC, Staphylococcus panel (9.2); format: cell-based; conditions: S. hominis CHUG-Shom6, 4% DMSO, 18 h
Description: as §1, §2, §3, §4

[5] = tested on: Staphylococcus haemolyticus (CHUG-Shae4); experiment: MIC, Staphylococcus panel (9.2); format: cell-based; conditions: S. haemolyticus CHUG-Shae4, 4% DMSO, 18 h
Description: as §1, §2, §3, §4

[6] = tested on: Staphylococcus warneri (CHUG-Swar7); experiment: MIC, Staphylococcus panel (9.2); format: cell-based; conditions: S. warneri CHUG-Swar7, 4% DMSO, 18 h
Description: as §1, §2, §3, §4

[7] = tested on: Staphylococcus hominis (CHUG-Shom5); experiment: MIC, Staphylococcus panel (9.2); format: cell-based; conditions: S. hominis CHUG-Shom5, 4% DMSO, 18 h
Description: as §1, §2, §3, §4

[8] = tested on: Staphylococcus cohnii (CHUG-Scoh2); experiment: MIC, Staphylococcus panel (9.2); format: cell-based; conditions: S. cohnii CHUG-Scoh2, 4% DMSO, 18 h
Description: as §1, §2, §3, §4

[9] = tested on: Staphylococcus hominis (CHUG-Shom4); experiment: MIC, Staphylococcus panel (9.2); format: cell-based; conditions: S. hominis CHUG-Shom4, 4% DMSO, 18 h
Description: as §1, §2, §3, §4

[10] = tested on: Staphylococcus haemolyticus (CHUG-Shae5); experiment: MIC, Staphylococcus panel (9.2); format: cell-based; conditions: S. haemolyticus CHUG-Shae5, 4% DMSO, 18 h
Description: as §1, §2, §3, §4

[11] = tested on: Staphylococcus hominis (CHUG-Shom7); experiment: MIC, Staphylococcus panel (9.2); format: cell-based; conditions: S. hominis CHUG-Shom7, 4% DMSO, 18 h
Description: as §1, §2, §3, §4

[12] = tested on: Staphylococcus hominis (CHUG-Shom3); experiment: MIC, Staphylococcus panel (9.2); format: cell-based; conditions: S. hominis CHUG-Shom3, 4% DMSO, 18 h
Description: as §1, §2, §3, §4

[13] = tested on: Staphylococcus auricularis (CHUG-Saur3); experiment: MIC, Staphylococcus panel (9.2); format: cell-based; conditions: S. auricularis CHUG-Saur3, 4% DMSO, 18 h
Description: as §1, §2, §3, §4

[14] = tested on: Staphylococcus warneri (CHUG-Swar6); experiment: MIC, Staphylococcus panel (9.2); format: cell-based; conditions: S. warneri CHUG-Swar6, 4% DMSO, 18 h
Description: as §1, §2, §3, §4

[15] = tested on: Staphylococcus hominis (CHUG-Shom8); experiment: MIC, Staphylococcus panel (9.2); format: cell-based; conditions: S. hominis CHUG-Shom8, 4% DMSO, 18 h
Description: as §1, §2, §3, §4

[16] = tested on: Staphylococcus capitis (CHUG-Scap7); experiment: MIC, Staphylococcus panel (9.2); format: cell-based; conditions: S. capitis CHUG-Scap7, 4% DMSO, 18 h
Description: as §1, §2, §3, §4

[17] = tested on: Staphylococcus capitis (CHUG-Scap4); experiment: MIC, Staphylococcus panel (9.2); format: cell-based; conditions: S. capitis CHUG-Scap4, 4% DMSO, 18 h
Description: as §1, §2, §3, §4

[18] = tested on: Staphylococcus cohnii (CHUG-Scoh1) (MRSA); experiment: MIC, Staphylococcus panel (9.2); format: cell-based; conditions: S. cohnii CHUG-Scoh1 (MRSA), 4% DMSO, 18 h
Description: as §1, §2, §3, §4

[19] = tested on: Staphylococcus warneri (CHUG-Swar5); experiment: MIC, Staphylococcus panel (9.2); format: cell-based; conditions: S. warneri CHUG-Swar5, 4% DMSO, 18 h
Description: as §1, §2, §3, §4

[20] = tested on: Staphylococcus capitis (CHUG-Scap6); experiment: MIC, Staphylococcus panel (9.2); format: cell-based; conditions: S. capitis CHUG-Scap6, 4% DMSO, 18 h
Description: as §1, §2, §3, §4

CC(C)(C)OC(=O)NCC(NC(=O)c1c[nH]c2ccc(Br)cc12)c1c[nH]c2ccc(Br)cc12 (stereo not drawn) [Compound 3f, tert-Butyl(2-(5-bromo-1H-indol-3-yl)-2-(5-bromo-1H-indolyl-3-carboxamido)ethyl)carbamate]
MIC [1]: 8 µg/mL (≈ 13.9 µM)
MIC [2]: 16 µg/mL (≈ 27.8 µM)
MIC [3]: 16 µg/mL (≈ 27.8 µM)
MIC [4]: 8 µg/mL (≈ 13.9 µM)
MIC [5]: 16 µg/mL (≈ 27.8 µM)
MIC [6]: 8 µg/mL (≈ 13.9 µM)
MIC [7]: 8 µg/mL (≈ 13.9 µM)
MIC [8]: 16 µg/mL (≈ 27.8 µM)
MIC [9]: 8 µg/mL (≈ 13.9 µM)
MIC [10]: 16 µg/mL (≈ 27.8 µM)
MIC [11]: 8 µg/mL (≈ 13.9 µM)
MIC [12]: 16 µg/mL (≈ 27.8 µM)
MIC [13]: 8 µg/mL (≈ 13.9 µM)
MIC [14]: 8 µg/mL (≈ 13.9 µM)
MIC [15]: 8 µg/mL (≈ 13.9 µM)
MIC [16]: 16 µg/mL (≈ 27.8 µM)
MIC [17]: 4 µg/mL (≈ 6.94 µM)
MIC [18]: 16 µg/mL (≈ 27.8 µM)
MIC [19]: 8 µg/mL (≈ 13.9 µM)
MIC [20]: 8 µg/mL (≈ 13.9 µM)

CC(NC(=O)c1c[nH]c2ccc(Br)cc12)c1c[nH]c2ccc(Br)cc12 (stereo not drawn) [Compound 4, 5-Bromo-N-(1-(5-bromo-1H-indol-3-yl)ethyl)-1H-indole-3-carboxamide]
melting point: 144 °C
